Data: US11090319B2, “Therapeutic uses of pharmaceutical compositions comprising cyclic boronic acid ester derivatives” (Melinta Subsidiary Corp., priority 2010, dated 2021)
Read-outs that look alike come from different tables or passages of the source.

How the values were obtained:
[1] = test system: KP1011 Klebsiella pneumoniae SHV-5; assay: microbe, parasite or virus in culture; type: cell-based; conditions: for Ceftazidime MIC with cyclic boronic acid ester derivative: derivative at 10 μg/mL, KP1011 SHV-5
Description: Next, ceftazidime potentiation activity of several cyclic boronic acid ester derivatives was tested using a larger panel of strains expressing β-lactamase hydrolyzing enzymes. Ceftazidime MICs were determined alone and in the presence of fixed concentrations of various cyclic boronic acid ester derivatives.

[2] = test system: EC1007 Escherichia coli KPC-3; assay: Checkerboard assay, biapenem potentiation; conditions: Biapenem MIC 8-fold; EC1007 KPC-3 class A
[3] = test system: SM1000 Serratia marcescens SME-2; assay: Checkerboard assay, biapenem potentiation; conditions: Biapenem MIC 8-fold; SM1000 SME-2 class A
GES-1, lysate of pa 1063 = GES-1, lysate of pa 1063 (Klebsiella pneumoniae, UniProt Q9KJY7); assay: Inhibition of ceftazidime hydrolysis by bacterial lysate
SHV-2, lysate of ec306 = SHV-2, lysate of ec306 (Escherichia coli, UniProt P0A9Z7); assay: as above
SHV-5, lysate of ec308 = SHV-5, lysate of ec308 (Escherichia coli, UniProt P0AD63, E235K/G234S); assay: as above
OXA-10, lysate of KP1007 = OXA-10, lysate of KP1007 (Pseudomonas aeruginosa, UniProt P14489); assay: as above
[4] = test system: strains expressing class A ESBLs; type: cell-based
Description: Selected β-lactamase inhibitors were also tested for their ability to potentiate the monobactam tigemonam.

[5] = Single dose pharmacokinetics and oral bioavailability in rats, Table 15; type: in vivo, Sprague-Dawley (SD) rats
Description: An in vivo model can be used to evaluate the single dose pharmacokinetic properties and absolute oral bioavailability of a test compound. As described more specifically below, a test compound is administered to Sprague-Dawley (SD) rats either intravenously or orally in a crossover study design and the resulting pharmacokinetic properties and oral bioavailability are measured. […] Plasma samples (0.3 ml) were collected from jugular vein cannula at 0.17, 0.33, 0.47, 0.58, 0.68, 0.75, 1, 2, 3, 4, and 6 hrs after the dosing. […] The samples were mixed and centrifuged for 30 min at 3000×g. 150 μL of supernatant was removed and added to 450 μL of water. HPLC-mass spectrometry: An Agilent 1100HPLC pump, HTC PAL autosampler and a Sciex […] mass spectrometer were used for separation and quantification. Compound 62 and its internal standard were detected using +ESI. Compound 5 and its internal standard were detected using -ESI. LC/MS/MS: 1) Column: Chromolith FastGradient RP-18e, 50×2 mm; 2) Mobile phase A: Aqueous Water with 0.1% TFA, Orgainic phase B: Acetonitrile with 0.1% TFA; Flow Rate: 600 μL/min; Injection volume: 10 μL; […] Plasma concentrations were modeled using WinNonlin® (Pharsight Corp, Mountain View, Calif.). In this experiment, three male Sprague Dawley rats were given Compound 5 by intravenous or oral route. At designated time points, bloods were collected and analyzed. […] Plasma samples were collected at designated time points and analyzed for the presence of Compound 5. […] Male rats (non-fasted) were orally administered 50 mg/kg of the prodrug Compound 62.

[6] = test system: KP1008 Klebsiella pneumoniae KPC-2; assay: Checkerboard assay, biapenem potentiation; conditions: Biapenem MIC 8-fold; KP1008 KPC-2 class A
KPC-3, lysate of EC1007 [7] = target: T1, KPC-3, lysate of EC1007 (Klebsiella pneumoniae, UniProt Q9F663, H272Y); assay: Inhibition of ceftazidime hydrolysis by bacterial lysate
KPC-3, lysate of EC1007 [8] = target: T1, KPC-3, lysate of EC1007; assay: Inhibition of biapenem hydrolysis by bacterial lysate

Which results are given for `O=C(O)C[C@@H]1CC[C@H](NC(=O)Cc2ccccc2)B(O)O1` [Compound 6, 2-((3R,6S)-2-hydroxy-3-(2-phenylacetamido)-1,2-oxaborinan-6-yl)acetic acid]?
Ceftazidime MIC with cyclic boronic acid ester derivative [1]: X (MIC of 1 μg/mL or less); MPC8 [2]: X (MPC8 of less than 0.16 μg/mL); MPC8 [3]: Y (MPC8 of 0.16 μg/mL to 1 μg/mL); IC50 (GES-1, lysate of pa 1063): 0.344 to 3.44 µM; IC50 (SHV-2, lysate of ec306): 0.344 to 3.44 µM; IC50 (SHV-5, lysate of ec308): > 3.44 µM; IC50 (OXA-10, lysate of KP1007): > 3.44 µM

With `CC(C)(O/N=C(\C(=O)N[C@@H]1C(=O)N2C(C(=O)[O-])=C(C[n+]3ccccc3)CS[C@H]12)c1csc(N)n1)C(=O)O` [Ceftazidime, reference compound] as the compound, how does the MIC ([1]; Klebsiella pneumoniae, read-out: Ceftazidime MIC Alone) read?
Its MIC is 1 to 8 µg/mL.

With `O=C(O)C[C@@H]1CC[C@H](NC(=O)Cc2cccs2)B(O)O1` [Compound 5, 2-((3R,6S)-2-hydroxy-3-(2-(thiophen-2-yl)acetamido)-1,2-oxaborinan-6-yl)acetic acid] as the compound, how does the “MPC4 CTX-M-14 KP1005” value [4] read?
The value was “Z (key: X: MPC@4 of less than 2 μg/mL; Y: MPC@4 of 2 μg/mL to 10 μg/mL; Z: MPC@4 of greater than 10 μg/mL)”.

What about the “MPC4 CTX-M-15 KP1009” value [4] of the same compound?
The value was “Z (key: X: MPC@4 of less than 2 μg/mL; Y: MPC@4 of 2 μg/mL to 10 μg/mL; Z: MPC@4 of greater than 10 μg/mL)”.

What about the “MPC4 SHV-5 ec308” value [4] of the same compound?
Its value is “Z (key: X: MPC@4 of less than 2 μg/mL; Y: MPC@4 of 2 μg/mL to 10 μg/mL; Z: MPC@4 of greater than 10 μg/mL)”.

And the “MPC4 SHV-12 KP1010” value [4]?
Its value is “Z (key: X: MPC@4 of less than 2 μg/mL; Y: MPC@4 of 2 μg/mL to 10 μg/mL; Z: MPC@4 of greater than 10 μg/mL)”.

What about the “MPC4 SHV-18 KP1012” value [4] of the same compound?
The value was “Z (key: X: MPC@4 of less than 2 μg/mL; Y: MPC@4 of 2 μg/mL to 10 μg/mL; Z: MPC@4 of greater than 10 μg/mL)”.

And the “MPC4 TEM-10 EC1009” value [4]?
The value was “Z (key: X: MPC@4 of less than 2 μg/mL; Y: MPC@4 of 2 μg/mL to 10 μg/mL; Z: MPC@4 of greater than 10 μg/mL)”.

What about the “MPC4 TEM-10 ec302” value [4] of the same compound?
Its value is “Z (key: X: MPC@4 of less than 2 μg/mL; Y: MPC@4 of 2 μg/mL to 10 μg/mL; Z: MPC@4 of greater than 10 μg/mL)”.

What about the “MPC4 TEM-26 ec304” value [4] of the same compound?
The value was “Z (key: X: MPC@4 of less than 2 μg/mL; Y: MPC@4 of 2 μg/mL to 10 μg/mL; Z: MPC@4 of greater than 10 μg/mL)”.

What about the half-life ([5]; Sprague-Dawley, rat, plasma, male SD rats, IV, 20 mg/kg) of the same compound?
Its half-life is 1.56 h.

What about the half-life ([5]; Sprague-Dawley, rat, plasma, male SD rats, PO, 50 mg/kg) of the same compound?
Its half-life is 1.55 h.

What about the AUC ([5]; Sprague-Dawley, rat, plasma, male SD rats, PO, 50 mg/kg, read-out: AUC) of the same compound?
The AUC was 810 ng·h/mL.

What about the CL/F ([5]; Sprague-Dawley, rat, plasma, male SD rats, PO, 50 mg/kg, read-out: CL/F (converted)) of the same compound?
Its CL/F is 1010 mL/min/kg.

And the Cmax ([5]; Sprague-Dawley, rat, plasma, male SD rats, PO, 50 mg/kg, read-out: Cmax)?
The Cmax was 290 ng/mL.

And the AUC ([5]; male SD rats, IV, 20 mg/kg)?
Its AUC is 12150 ng·h/mL.

And the CL/F ([5]; male SD rats, IV, 20 mg/kg)?
The CL/F was 27.5 mL/min/kg.

And the Cmax ([5]; male SD rats, IV, 20 mg/kg)?
Its Cmax is 19820 ng/mL.

And the AUC ([5]; male SD rats, IV, 50 mg/kg)?
Its AUC is 28190 ng·h/mL.

And the CL/F ([5]; male SD rats, IV, 50 mg/kg)?
Its CL/F is 29.5 mL/min/kg.

What about the Cmax ([5]; male SD rats, IV, 50 mg/kg) of the same compound?
The Cmax was 45930 ng/mL.

What about the T1/2 ([5]; male SD rats, IV, 50 mg/kg) of the same compound?
The T1/2 was 4.53 h.

And the oral absorption ([5]; rats, 50 mg/kg orally in saline)?
Its oral absorption is “not orally absorbed”.

And the PK linearity ([5]; rats, intravenous 20 or 50 mg/kg)?
The PK linearity was “linear PK”.

And the MPC8 [2]?
The MPC8 was “X (MPC8 of less than 0.16 μg/mL)”.

And the MPC8 [3]?
Its MPC8 is “Y (MPC8 of 0.16 μg/mL to 1 μg/mL)”.

And the IC50 (GES-1, lysate of pa 1063)?
The IC50 was < 0.337 µM.

What about the IC50 (SHV-2, lysate of ec306) of the same compound?
Its IC50 is 0.337 to 3.37 µM.

And the IC50 (SHV-5, lysate of ec308)?
The IC50 was > 3.37 µM.

What about the IC50 (OXA-10, lysate of KP1007) of the same compound?
The IC50 was 0.337 to 3.37 µM.

With `O=C(O)CC1CC[C@H](NC(=O)C2CC2)B(O)O1` (stereo partly drawn) [Compound 4, 2-((3R)-3-(cyclopropanecarboxamido)-2-hydroxy-1,2-oxaborinan-6-yl)acetic acid] as the compound, how does the “Ceftazidime MIC with cyclic boronic acid ester derivative” value [1] read?
Its value is “X (MIC of 1 μg/mL or less)”.

What about the MPC8 [6] of the same compound?
The MPC8 was “X (MPC8 of less than 0.16 μg/mL)”.

What about the MPC8 [3] of the same compound?
The MPC8 was “X (MPC8 of less than 0.16 μg/mL)”.

What about the IC50 (GES-1, lysate of pa 1063) of the same compound?
The IC50 was 0.415 to 4.15 µM.

What about the IC50 (KPC-3, lysate of EC1007 [7]) of the same compound?
Its IC50 is < 0.415 µM.

What about the IC50 (SHV-2, lysate of ec306) of the same compound?
Its IC50 is > 4.15 µM.

And the IC50 (SHV-5, lysate of ec308)?
Its IC50 is > 4.15 µM.

What about the IC50 (OXA-10, lysate of KP1007) of the same compound?
The IC50 was > 4.15 µM.

For `CC(=O)N[C@H]1CCC(CC(=O)O)OB1O` (stereo partly drawn) [Compound 3, 2-((3R)-3-acetamido-2-hydroxy-1,2-oxaborinan-6-yl)acetic acid], which “Ceftazidime MIC with cyclic boronic acid ester derivative” value [1] is on record?
Its value is “X (MIC of 1 μg/mL or less)”.

What about the MPC8 [6] of the same compound?
Its MPC8 is “X (MPC8 of less than 0.16 μg/mL)”.

What about the MPC8 [3] of the same compound?
The MPC8 was “Y (MPC8 of 0.16 μg/mL to 1 μg/mL)”.

And the IC50 (GES-1, lysate of pa 1063)?
The IC50 was > 4.65 µM.

And the IC50 (SHV-2, lysate of ec306)?
Its IC50 is > 4.65 µM.

And the IC50 (SHV-5, lysate of ec308)?
Its IC50 is > 4.65 µM.

What about the IC50 (OXA-10, lysate of KP1007) of the same compound?
The IC50 was > 4.65 µM.

With `Cl.N[C@H]1CCC(CC(=O)O)OB1O` (stereo partly drawn) [Compound 7, 2-((3R)-3-amino-2-hydroxy-1,2-oxaborinan-6-yl)acetic acid hydrochloride] as the compound, how does the IC50 (KPC-3, lysate of EC1007 [8]) read?
Its IC50 is > 4.77 µM.

What about the IC50 (GES-1, lysate of pa 1063) of the same compound?
The IC50 was 0.477 to 4.77 µM.

And the IC50 (KPC-3, lysate of EC1007 [7])?
The IC50 was > 4.77 µM.

What about the IC50 (SHV-2, lysate of ec306) of the same compound?
The IC50 was > 4.77 µM.

And the IC50 (SHV-5, lysate of ec308)?
Its IC50 is > 4.77 µM.

What about the IC50 (OXA-10, lysate of KP1007) of the same compound?
The IC50 was > 4.77 µM.
